In ChEMBL document CHEMBL3751785, “Development and structural analysis of adenosine site binding tankyrase inhibitors” (Bioorg Med Chem Lett, 2016):

Assays:
[1] = target: T1, Protein mono-ADP-ribosyltransferase PARP10 (Homo sapiens, UniProt Q53GL7); assay: Inhibition of human ARTD10 by fluorescence analysis
T1 sequence (Q53GL7 whole entry): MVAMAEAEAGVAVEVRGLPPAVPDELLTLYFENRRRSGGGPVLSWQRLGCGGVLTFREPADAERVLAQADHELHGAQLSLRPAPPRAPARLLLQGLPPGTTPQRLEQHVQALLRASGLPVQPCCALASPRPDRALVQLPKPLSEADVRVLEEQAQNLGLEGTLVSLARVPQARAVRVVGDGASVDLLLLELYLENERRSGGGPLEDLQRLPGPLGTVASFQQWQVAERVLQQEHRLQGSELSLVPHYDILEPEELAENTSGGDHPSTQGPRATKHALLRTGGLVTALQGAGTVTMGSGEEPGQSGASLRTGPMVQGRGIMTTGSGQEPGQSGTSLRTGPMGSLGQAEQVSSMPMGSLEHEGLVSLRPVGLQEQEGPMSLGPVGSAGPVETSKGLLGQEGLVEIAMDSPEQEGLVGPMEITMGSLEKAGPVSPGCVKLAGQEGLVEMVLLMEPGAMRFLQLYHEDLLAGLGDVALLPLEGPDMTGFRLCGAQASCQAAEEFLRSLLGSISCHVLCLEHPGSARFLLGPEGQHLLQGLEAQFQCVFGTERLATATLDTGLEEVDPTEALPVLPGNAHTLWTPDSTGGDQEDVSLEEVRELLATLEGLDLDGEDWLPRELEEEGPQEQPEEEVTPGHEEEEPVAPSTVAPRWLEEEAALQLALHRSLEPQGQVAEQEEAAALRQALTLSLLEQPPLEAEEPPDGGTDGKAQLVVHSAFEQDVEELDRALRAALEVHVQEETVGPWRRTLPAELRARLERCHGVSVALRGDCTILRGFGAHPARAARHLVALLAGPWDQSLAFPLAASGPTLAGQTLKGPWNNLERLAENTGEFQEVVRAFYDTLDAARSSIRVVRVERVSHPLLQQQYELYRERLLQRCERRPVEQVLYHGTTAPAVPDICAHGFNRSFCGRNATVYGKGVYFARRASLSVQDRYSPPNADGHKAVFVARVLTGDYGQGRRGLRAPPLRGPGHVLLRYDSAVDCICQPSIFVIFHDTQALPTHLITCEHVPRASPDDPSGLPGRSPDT

[2] = target: Poly [ADP-ribose] polymerase 2 (Homo sapiens, UniProt Q9UGN5); assay: Inhibition of human ARTD2 by fluorescence analysis
[3] = target: T2, Protein mono-ADP-ribosyltransferase PARP12 (Homo sapiens, UniProt Q9H0J9); assay: Inhibition of human ARTD12 by fluorescence analysis
T2 sequence (Q9H0J9 whole entry): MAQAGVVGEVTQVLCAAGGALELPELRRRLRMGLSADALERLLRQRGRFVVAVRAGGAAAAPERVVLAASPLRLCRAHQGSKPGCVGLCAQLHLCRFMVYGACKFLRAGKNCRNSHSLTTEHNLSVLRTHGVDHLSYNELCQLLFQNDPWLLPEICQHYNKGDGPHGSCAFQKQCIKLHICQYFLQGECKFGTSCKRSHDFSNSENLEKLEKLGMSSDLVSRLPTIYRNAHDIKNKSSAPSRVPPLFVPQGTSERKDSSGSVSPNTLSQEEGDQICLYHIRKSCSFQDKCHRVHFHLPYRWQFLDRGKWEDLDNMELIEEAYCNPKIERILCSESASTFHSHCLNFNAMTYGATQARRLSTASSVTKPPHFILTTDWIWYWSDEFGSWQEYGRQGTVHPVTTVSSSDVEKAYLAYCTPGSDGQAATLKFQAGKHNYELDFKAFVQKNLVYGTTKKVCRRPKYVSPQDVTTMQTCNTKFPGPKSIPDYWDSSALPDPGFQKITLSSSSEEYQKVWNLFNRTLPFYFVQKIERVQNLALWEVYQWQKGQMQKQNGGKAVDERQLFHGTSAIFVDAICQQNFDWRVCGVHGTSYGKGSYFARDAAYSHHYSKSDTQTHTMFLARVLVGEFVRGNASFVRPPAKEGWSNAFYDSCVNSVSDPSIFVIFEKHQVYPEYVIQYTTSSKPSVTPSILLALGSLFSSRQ

[4] = target: T3, Protein mono-ADP-ribosyltransferase PARP15 (Homo sapiens, UniProt Q460N3); assay: Inhibition of human ARTD7 by fluorescence analysis
T3 sequence (Q460N3 whole entry): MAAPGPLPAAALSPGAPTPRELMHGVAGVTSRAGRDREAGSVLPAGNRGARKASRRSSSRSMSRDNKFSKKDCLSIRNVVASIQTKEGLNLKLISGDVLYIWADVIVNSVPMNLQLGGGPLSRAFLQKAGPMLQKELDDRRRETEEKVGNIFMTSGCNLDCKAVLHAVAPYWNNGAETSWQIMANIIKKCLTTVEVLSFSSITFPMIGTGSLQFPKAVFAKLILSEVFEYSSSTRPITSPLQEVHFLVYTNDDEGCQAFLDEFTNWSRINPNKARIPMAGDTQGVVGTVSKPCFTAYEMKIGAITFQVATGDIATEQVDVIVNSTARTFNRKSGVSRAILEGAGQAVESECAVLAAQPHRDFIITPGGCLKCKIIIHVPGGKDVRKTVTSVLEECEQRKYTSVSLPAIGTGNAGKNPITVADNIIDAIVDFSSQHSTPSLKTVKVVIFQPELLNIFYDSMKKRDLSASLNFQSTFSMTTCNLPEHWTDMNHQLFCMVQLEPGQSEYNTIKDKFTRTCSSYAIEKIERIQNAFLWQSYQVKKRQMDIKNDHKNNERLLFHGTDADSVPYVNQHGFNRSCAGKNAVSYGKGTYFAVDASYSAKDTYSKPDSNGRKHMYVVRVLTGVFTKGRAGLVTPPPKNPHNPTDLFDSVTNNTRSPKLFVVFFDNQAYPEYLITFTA

[5] = target: Poly [ADP-ribose] polymerase 1 (Homo sapiens, UniProt P09874); assay: Inhibition of human ARTD1 by fluorescence analysis
[6] = target: Protein mono-ADP-ribosyltransferase PARP4 (Homo sapiens, UniProt Q9UKK3); assay: Inhibition of human ARTD4 by fluorescence analysis
[7] = target: T4, Protein mono-ADP-ribosyltransferase PARP3 (Homo sapiens, UniProt Q9Y6F1); assay: Inhibition of human ARTD3 by fluorescence analysis
T4 sequence (Q9Y6F1 whole entry): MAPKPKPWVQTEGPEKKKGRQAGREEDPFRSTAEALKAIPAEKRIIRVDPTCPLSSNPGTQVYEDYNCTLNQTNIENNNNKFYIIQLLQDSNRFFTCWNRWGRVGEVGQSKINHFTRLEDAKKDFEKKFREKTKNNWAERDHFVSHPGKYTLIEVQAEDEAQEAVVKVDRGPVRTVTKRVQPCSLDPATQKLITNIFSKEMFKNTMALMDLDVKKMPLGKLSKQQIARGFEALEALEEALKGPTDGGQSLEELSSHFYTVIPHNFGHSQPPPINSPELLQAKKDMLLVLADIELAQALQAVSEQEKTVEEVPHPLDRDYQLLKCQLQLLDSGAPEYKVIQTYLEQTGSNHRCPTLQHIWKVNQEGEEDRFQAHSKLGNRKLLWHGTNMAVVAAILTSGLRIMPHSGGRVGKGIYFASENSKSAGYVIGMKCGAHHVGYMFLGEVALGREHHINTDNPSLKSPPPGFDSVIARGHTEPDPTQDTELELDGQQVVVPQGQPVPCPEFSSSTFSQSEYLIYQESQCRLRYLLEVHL

[8] = target: Protein mono-ADP-ribosyltransferase PARP14 (Homo sapiens, UniProt Q460N5); assay: Inhibition of human ARTD8 by fluorescence analysis
Protein mono-ADP-ribosyltransferase PARP14, sequence (Q460N5 whole entry): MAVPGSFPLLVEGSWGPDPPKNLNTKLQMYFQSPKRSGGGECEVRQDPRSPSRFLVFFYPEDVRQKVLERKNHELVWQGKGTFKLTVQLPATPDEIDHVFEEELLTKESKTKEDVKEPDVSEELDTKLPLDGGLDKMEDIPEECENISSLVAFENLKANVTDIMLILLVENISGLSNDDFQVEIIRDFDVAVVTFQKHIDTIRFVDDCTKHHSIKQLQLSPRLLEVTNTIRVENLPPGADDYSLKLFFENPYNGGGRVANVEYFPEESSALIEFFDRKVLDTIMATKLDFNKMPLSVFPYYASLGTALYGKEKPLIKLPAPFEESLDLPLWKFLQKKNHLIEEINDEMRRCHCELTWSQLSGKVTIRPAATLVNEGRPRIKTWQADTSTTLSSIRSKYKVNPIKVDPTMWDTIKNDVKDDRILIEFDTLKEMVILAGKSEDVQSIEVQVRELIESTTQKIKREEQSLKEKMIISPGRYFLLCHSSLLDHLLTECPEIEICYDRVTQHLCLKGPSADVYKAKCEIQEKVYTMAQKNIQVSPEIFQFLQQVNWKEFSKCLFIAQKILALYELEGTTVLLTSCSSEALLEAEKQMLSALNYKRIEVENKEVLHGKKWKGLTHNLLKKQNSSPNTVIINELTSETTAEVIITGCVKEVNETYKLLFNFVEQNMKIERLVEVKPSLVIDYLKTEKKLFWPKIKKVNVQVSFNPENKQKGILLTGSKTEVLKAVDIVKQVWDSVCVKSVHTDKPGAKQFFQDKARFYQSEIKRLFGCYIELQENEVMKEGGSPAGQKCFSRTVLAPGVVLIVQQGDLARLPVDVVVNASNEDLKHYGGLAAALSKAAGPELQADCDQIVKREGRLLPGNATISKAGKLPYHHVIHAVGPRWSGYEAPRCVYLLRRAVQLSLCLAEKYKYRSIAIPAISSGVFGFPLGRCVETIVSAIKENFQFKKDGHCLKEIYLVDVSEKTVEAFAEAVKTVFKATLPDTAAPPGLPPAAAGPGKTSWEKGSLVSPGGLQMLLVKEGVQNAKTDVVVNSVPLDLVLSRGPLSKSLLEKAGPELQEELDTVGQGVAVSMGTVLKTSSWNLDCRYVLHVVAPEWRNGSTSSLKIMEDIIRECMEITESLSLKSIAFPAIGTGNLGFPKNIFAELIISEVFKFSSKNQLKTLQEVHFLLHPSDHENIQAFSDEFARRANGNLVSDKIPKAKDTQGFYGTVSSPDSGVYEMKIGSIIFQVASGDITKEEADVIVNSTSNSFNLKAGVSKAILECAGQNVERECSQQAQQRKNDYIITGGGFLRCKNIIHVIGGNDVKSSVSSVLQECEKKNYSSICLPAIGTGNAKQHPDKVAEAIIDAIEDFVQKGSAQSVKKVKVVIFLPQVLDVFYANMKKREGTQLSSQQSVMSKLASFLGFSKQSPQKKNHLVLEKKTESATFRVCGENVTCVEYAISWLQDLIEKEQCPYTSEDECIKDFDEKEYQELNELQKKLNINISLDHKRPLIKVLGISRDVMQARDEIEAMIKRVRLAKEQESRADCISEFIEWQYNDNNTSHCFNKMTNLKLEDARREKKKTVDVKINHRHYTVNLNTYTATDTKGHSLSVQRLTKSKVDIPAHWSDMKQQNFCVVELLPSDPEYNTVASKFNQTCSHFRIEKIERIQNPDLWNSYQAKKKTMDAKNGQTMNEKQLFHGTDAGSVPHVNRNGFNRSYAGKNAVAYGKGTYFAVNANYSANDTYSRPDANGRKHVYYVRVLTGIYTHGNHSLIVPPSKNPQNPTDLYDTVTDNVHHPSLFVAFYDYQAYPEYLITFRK

Poly [ADP-ribose] polymerase 1, sequence (P09874 whole entry): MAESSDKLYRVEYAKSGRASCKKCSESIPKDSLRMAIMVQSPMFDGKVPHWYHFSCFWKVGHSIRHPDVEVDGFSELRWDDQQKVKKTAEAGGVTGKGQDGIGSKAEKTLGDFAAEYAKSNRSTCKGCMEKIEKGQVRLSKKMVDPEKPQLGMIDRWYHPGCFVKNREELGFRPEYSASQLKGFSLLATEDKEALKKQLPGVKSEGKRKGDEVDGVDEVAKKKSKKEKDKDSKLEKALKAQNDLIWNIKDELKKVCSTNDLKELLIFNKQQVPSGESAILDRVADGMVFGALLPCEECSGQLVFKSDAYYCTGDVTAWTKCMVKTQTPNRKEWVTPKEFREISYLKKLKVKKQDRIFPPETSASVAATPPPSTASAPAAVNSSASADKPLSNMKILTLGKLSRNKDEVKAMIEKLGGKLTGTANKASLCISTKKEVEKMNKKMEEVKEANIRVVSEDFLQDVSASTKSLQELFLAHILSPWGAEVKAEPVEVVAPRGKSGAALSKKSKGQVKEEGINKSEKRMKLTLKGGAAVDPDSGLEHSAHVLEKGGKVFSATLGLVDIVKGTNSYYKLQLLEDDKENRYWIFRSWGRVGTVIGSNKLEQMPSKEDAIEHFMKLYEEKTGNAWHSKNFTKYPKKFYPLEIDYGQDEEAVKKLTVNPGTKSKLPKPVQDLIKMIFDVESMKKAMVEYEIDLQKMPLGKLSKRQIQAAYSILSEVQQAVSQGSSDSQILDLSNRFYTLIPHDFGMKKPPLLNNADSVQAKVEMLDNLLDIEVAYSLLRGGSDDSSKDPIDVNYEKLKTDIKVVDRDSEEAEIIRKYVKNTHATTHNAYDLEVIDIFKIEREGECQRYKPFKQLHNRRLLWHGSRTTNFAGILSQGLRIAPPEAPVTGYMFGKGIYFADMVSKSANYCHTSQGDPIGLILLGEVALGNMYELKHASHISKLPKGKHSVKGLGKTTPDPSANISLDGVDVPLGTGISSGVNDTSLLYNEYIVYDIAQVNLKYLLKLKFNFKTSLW
Protein mono-ADP-ribosyltransferase PARP4, sequence (Q9UKK3 whole entry): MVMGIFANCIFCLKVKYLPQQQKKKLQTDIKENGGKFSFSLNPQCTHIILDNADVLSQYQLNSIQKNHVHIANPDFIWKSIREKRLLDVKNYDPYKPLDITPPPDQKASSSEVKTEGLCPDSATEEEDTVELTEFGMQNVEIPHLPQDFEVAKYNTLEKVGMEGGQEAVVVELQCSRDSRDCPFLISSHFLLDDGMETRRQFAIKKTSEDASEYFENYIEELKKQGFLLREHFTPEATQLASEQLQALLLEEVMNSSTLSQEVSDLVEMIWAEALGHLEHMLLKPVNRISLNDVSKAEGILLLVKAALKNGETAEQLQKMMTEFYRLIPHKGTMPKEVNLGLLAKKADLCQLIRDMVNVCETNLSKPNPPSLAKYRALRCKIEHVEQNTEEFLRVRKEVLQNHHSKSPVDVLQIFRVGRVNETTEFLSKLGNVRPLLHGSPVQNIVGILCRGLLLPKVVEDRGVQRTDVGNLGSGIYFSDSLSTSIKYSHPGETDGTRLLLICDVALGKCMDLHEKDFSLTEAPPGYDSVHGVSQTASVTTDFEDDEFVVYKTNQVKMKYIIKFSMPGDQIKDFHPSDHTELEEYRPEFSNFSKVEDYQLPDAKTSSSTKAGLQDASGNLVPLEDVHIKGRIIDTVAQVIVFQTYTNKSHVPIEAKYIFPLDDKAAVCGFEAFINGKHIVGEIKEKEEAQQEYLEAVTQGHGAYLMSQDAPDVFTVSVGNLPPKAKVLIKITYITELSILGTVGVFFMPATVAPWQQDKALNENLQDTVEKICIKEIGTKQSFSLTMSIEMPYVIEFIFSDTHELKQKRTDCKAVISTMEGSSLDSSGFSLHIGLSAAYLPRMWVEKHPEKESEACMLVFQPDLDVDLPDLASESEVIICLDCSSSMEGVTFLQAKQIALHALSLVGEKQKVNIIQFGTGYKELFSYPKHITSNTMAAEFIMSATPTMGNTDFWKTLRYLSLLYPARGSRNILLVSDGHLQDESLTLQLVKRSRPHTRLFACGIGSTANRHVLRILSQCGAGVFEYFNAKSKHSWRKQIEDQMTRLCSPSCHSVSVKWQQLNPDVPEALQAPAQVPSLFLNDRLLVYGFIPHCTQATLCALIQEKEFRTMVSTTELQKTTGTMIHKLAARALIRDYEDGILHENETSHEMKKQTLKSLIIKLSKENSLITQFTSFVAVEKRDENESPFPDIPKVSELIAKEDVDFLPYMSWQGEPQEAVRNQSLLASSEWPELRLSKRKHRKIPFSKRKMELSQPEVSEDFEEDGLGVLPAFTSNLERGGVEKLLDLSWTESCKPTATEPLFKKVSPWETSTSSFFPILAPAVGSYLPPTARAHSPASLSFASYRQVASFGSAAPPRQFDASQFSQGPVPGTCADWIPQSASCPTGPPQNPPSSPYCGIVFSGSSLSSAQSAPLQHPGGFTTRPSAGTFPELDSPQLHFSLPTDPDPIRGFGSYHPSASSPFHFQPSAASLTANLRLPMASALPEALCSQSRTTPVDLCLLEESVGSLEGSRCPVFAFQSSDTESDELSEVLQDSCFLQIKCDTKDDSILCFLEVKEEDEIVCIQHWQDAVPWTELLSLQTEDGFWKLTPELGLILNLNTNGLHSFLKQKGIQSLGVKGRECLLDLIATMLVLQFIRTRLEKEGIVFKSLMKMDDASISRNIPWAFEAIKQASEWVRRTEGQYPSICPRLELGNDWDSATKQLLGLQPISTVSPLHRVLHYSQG
Poly [ADP-ribose] polymerase 2, sequence (Q9UGN5 whole entry): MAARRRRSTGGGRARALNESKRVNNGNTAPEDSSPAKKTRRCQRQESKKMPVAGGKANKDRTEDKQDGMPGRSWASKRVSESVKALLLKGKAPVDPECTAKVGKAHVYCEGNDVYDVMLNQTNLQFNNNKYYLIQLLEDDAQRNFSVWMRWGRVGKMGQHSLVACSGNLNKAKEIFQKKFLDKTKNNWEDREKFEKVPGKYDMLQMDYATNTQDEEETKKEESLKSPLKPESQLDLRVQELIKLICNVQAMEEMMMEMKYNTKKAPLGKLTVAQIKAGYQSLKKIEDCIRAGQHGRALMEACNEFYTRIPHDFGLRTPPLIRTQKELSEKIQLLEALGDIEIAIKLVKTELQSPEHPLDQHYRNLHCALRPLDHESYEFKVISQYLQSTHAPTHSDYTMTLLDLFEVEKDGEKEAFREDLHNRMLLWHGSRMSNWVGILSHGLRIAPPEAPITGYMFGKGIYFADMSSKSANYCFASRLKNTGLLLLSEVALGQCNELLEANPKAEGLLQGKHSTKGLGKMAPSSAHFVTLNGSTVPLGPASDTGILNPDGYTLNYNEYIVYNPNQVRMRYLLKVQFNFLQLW

Question: `COc1ccc(C(=O)Nc2ccc(C(=O)N(c3ccncn3)c3ccccc3Cl)cc2)cc1` was tested. Which IC50 [1] did it give?
Answer: > 10 µM

Question: And the IC50 [2]?
Answer: > 100 µM

Question: And the IC50 [3]?
Answer: > 10 µM

Question: What about the IC50 [4] of the same molecule?
Answer: > 10 µM

Question: And the IC50 [5]?
Answer: 77 µM

Question: And the IC50 [6]?
Answer: > 100 µM

Question: What about the IC50 [7] of the same molecule?
Answer: > 100 µM

Question: What about the IC50 [8] of the same molecule?
Answer: > 10 µM
